# ChEMBL document CHEMBL5441142, “Probing the Merck KGaA Open Global health library for novel starting points for anti-schistosomal drug discovery” (2024)
# Activity calls are given as the source filed them. How the calls were made is not given here.
# Tested on: Schistosoma mansoni
# Experiment: In vitro activity screen on S. mansoni schistosomula at 10 uM. Compound-induced effects were assessed by quantifying larva motility and phenotype using Roboworm.
# Type: functional, organism-based
# Parameters: test concentration 10 uM, temperature 37 degree C, time incubation 72 h
# Settings: Puerto Rican
row,SMILES,In vitro activity
1,CC1=C(C(=O)N2Cc3cc(C(F)(F)F)ccc3C3(CC3)C2)C2(CCN(C3CCOCC3)CC2)OC1=O,inactive
2,COc1ccc(OC)c(-c2cn3cc(C(=O)NCCc4cccc(OC)c4OC)ccc3n2)c1,inactive
3,Cc1ccccc1-c1ccc(-c2nc(-c3ccc(CN(C)CCC(=O)O)c(F)c3)no2)cc1C(F)(F)F,inactive
4,COc1ccc(C2=NN(C(=O)c3ccc(NC(=O)c4ccncc4)cc3)CCC2)cc1OC1CCCC1,inactive
5,CCN1CCC2(CC1)OC(=O)C(C)=C2C(=O)N1C[C@@H]2C[C@H]1CN2c1cc(C(F)(F)F)ccn1,inactive
6,CCCCCCN(Cc1ccc(C#Cc2ccc(CCCC)cc2)cc1)C(=O)c1ccc(O)c(C(=O)O)c1,inactive
7,O=C(O)c1cn(Cc2ccc(-n3cccn3)cc2)c2c(F)ccc(F)c2c1=O,inactive
8,CC1=C(C(=O)N2Cc3cc(C(F)(F)F)ccc3C(C)(C)C2)C2(CCN(C3CCOCC3)CC2)OC1=O,inactive
9,CCC(C)[S+]([O-])c1ccc(-c2nc3ccncc3[nH]2)c(OC)c1 (stereo not drawn),inactive
10,O=C(O)CC1CCN(c2nc(NCc3ccc4c(c3)OCO4)c3c4c(sc3n2)CCCC4)CC1,inactive
11,CCSc1cc(C)c(C(=O)N=C(N)N)cc1S(C)(=O)=O,inactive
12,COc1ccc(N2C(=O)c3ccccc3NC23CN(Cc2cccc(C)c2)C3)cc1,inactive
13,COCc1cc(-c2nc(-c3cc(F)cc(CN(C)CC(=O)O)c3)no2)ccc1-c1ccccc1F,inactive
14,Cc1cc(-n2cccc2)c(S(C)(=O)=O)cc1C(=O)N=C(N)N,inactive
15,COc1cc(OC)c(CCNC(=O)c2cn3cc(-c4cc(OCC(N)=O)ccc4OC)nc3s2)c(OC)c1,inactive
16,Cc1cc(OC(F)(F)F)c(S(C)(=O)=O)cc1C(=O)N=C(N)N,inactive
17,CC1=C(C(=O)N2CCc3c(F)cc(C(F)(F)F)cc3C2)C2(CCN(C3CCOCC3)CC2)OC1=O,inactive
18,CC1SC(=O)NN=C1c1ccc2c(c1)CCCN2 (stereo not drawn),inactive
19,CCCc1cc(C)c(C(=O)N=C(N)N)cc1S(C)(=O)=O,inactive
20,Cc1csc(N2CCN(C(C)c3ccc4c(c3)OCO4)CC2)n1 (stereo not drawn),inactive
21,Cc1cc(Nc2ccccn2)c(S(C)(=O)=O)cc1C(=O)N=C(N)N,inactive
22,CCCc1nn(C)c2c(=O)[nH]c(-c3cc(S(=O)(=O)Oc4nc(C)ccc4C#N)ccc3OCC)nc12,inactive

row,SMILES,In vitro activity
1,O=C(CCN1CCCCC1)c1ccc2[nH]c(=O)sc2c1,inactive
2,CN(CCCCc1ccc(F)cc1)CCC(=O)c1ccc2[nH]c(=O)oc2c1,inactive
3,Cc1cc(Cl)c(-n2cccc2)cc1C(=O)N=C(N)N,inactive
4,Cc1nc2c3c(nn2c(C)c1Cl)CN(C(=O)c1ccc(F)cc1OC1C[C@H]2COC[C@H](C1)N2C)C3 (stereo partly drawn),inactive
5,COCc1cc(-c2nc(-c3cccc(CN(C)CC(=O)O)c3)no2)ccc1-c1ccccc1C,inactive
6,CC(Sc1nc(-c2ccc(Cl)cc2)c(-c2ccc(Cl)cc2)o1)C(=O)NCC(=O)O (stereo not drawn),inactive
7,COCc1cc(-c2nc(-c3cc(F)cc(CN(C)CCC(=O)O)c3)no2)ccc1-c1ccccc1C,inactive
8,CCS(=O)(=O)c1cc(C)c(C(=O)N=C(N)N)cc1S(C)(=O)=O,inactive
9,COCc1cc(-c2nc(-c3cccc(CN(C)CC(=O)O)c3)no2)ccc1-c1ccccc1,inactive
10,O=C(O)Cc1ccc(-c2nc(NCc3ccc4c(c3)OCO4)c3c4c(sc3n2)CCCC4)cc1,inactive
11,O=C(O)CN1C(=O)[C@@]2(NC(=O)N(Cc3cc(Cl)ccc3F)C2=O)c2cc(Cl)ccc21,inactive
12,CCCc1nn(C)c2c(=O)[nH]c(-c3cc(S(=O)(=O)Oc4ccccn4)ccc3OCC)nc12,inactive
13,COC(=O)c1cc(C(=O)N=C(N)N)c(C)cc1C,inactive
14,Cc1cc(C)c(S(C)(=O)=O)cc1C(=O)N=C(N)N,inactive
15,COc1cc(NC(=O)c2cn(Cc3ccc(Cl)cc3)nn2)ccc1-n1cnc(C)c1,inactive
16,CNC(=O)c1cc(Oc2ccc(NC(=O)Nc3cc(C(F)(F)F)ccc3-n3ccnc3)cc2)ccn1,inactive
17,COc1cc(SC(C)C#N)ccc1-c1nc2ccncc2[nH]1 (stereo not drawn),inactive
18,O=C(O)c1cn(Cc2ccc(-c3ccccc3)cc2)c2ccccc2c1=O,inactive
19,Cc1c(C(=O)N=C(N)N)cc(-n2cccc2)c(C)c1C,inactive
20,COc1cc(C(=O)NCc2cn(Cc3ccc(Cl)c(Cl)c3)nn2)ccc1-c1ccnc(C)c1,inactive
21,CCCc1nn(C)c2c(=O)[nH]c(-c3cc(S(=O)(=O)Oc4ccc(=O)n(C)n4)ccc3OCC)nc12,inactive
22,COCc1cc(-c2nc(-c3ccc(CN(C)CCC(=O)O)c(F)c3)no2)ccc1-c1ccccc1C,inactive

row,SMILES,In vitro activity
1,CC1=C(C(=O)N2CCc3ncc(C(F)(F)F)cc3C2)C2(CCN([C@H]3CC[C@@H](O)CC3)CC2)OC1=O,inactive
2,O=C(Nc1ccc(Oc2ccncc2)cc1)Nc1cc(C(F)(F)F)ccc1-n1cncn1,inactive
3,COc1ccc(C(=O)N2CCCc3cc(C4=NNC(=O)SC4C)ccc32)cc1OC (stereo not drawn),inactive
4,COc1ccc(OC)c(CCNC(=O)c2cn3cc(-c4cc(OC)ccc4OC)nc3s2)c1,inactive
5,COc1cc(OC)cc(-c2cn3cc(C(=O)NCCc4ccc(OC)cc4OC)ccc3n2)c1,inactive
6,COCc1cc(-c2nc(-c3ccc(CN(C)CC(=O)O)c(F)c3)no2)ccc1-c1cccc(F)c1C,inactive
7,C1=C(c2ccccc2)CCN(CCCCc2c[nH]c3ccccc23)C1,inactive
8,CCCCc1nc2ccn(CC(=O)N3CCCCC3)c(=O)c2n1Cc1ccc(-c2ccccc2S(=O)(=O)NC(=O)OCc2ccccc2)cc1F,inactive
9,CCCc1nn(C)c2c(=O)[nH]c(-c3cc(S(=O)(=O)Oc4ccc(=O)[nH]n4)ccc3OCC)nc12,inactive
10,Cc1cc(C2CCCC2)c(S(C)(=O)=O)cc1C(=O)N=C(N)N,inactive
11,CCC(C)Oc1ccc(-c2nc(-c3cc(F)cc(CN(C)CC(=O)O)c3)no2)cc1COC (stereo not drawn),inactive
12,Cc1cc(C(C)C)c(S(C)(=O)=O)cc1C(=O)N=C(N)N,inactive
13,CN(C)c1nc2c(s1)CCc1[nH]c(=O)c(C#N)cc1-2,inactive
14,COc1cc([S+]([O-])Cc2ccccc2)ccc1-c1nc2ccncc2[nH]1 (stereo not drawn),inactive
15,CN(C)c1cccc2c(S(=O)(=O)Nc3ccc4nsnc4c3)cccc12,inactive
16,COc1cc(OC)c(CCNC(=O)c2cn3cc(-c4cc(OCC(=O)NCCO)ccc4OC)nc3s2)c(OC)c1,inactive
17,COc1ccc(CNc2nc(-c3ccc(C(=O)O)cc3)nc3sc4c(c23)CCCC4)cc1Cl,inactive
18,COc1ccc(CNc2nc(-c3ccc(CC(=O)O)cc3)nc3sc4c(c23)CCCC4)cc1Cl,inactive
19,C=CC(C)c1cc(C)c(C(=O)N=C(N)N)cc1S(C)(=O)=O (stereo not drawn),inactive
20,CCCCc1nc2ccn(Cc3ccccc3)c(=O)c2n1Cc1ccc(-c2ccccc2-c2nn[nH]n2)cc1,inactive
21,CC1=C(C(=O)N2CCc3ncc(C(F)(F)F)cc3C2)C2(CCN(C3CCc4ccccc43)CC2)OC1=O (stereo not drawn),inactive
22,O=C(O)c1ccc(-c2nc(NCc3ccc4c(c3)OCO4)c3c4c(sc3n2)CCCC4)cc1,inactive

row,SMILES,In vitro activity
1,COCCCN1CCC2(CC1)OC(=O)C(C)=C2C(=O)N1CCc2ccc(C(F)(F)F)cc2C1,inactive
2,CCCc1nn(C)c2c(=O)[nH]c(-c3cc(S(=O)(=O)Oc4cccnc4)ccc3OCC)nc12,inactive
3,O=C(O)c1ccc(-c2nc(NCc3ccccc3)c3c4c(sc3n2)CCCC4)cc1,inactive
4,Cc1cc(-c2cccs2)c(S(C)(=O)=O)cc1C(=O)N=C(N)N,inactive
5,COCc1cc(-c2nc(-c3ccc(CN(C)CCC(=O)O)cc3)no2)ccc1-c1ccccc1C,inactive
6,CC1=C(C(=O)N2CCc3ccc(C(F)(F)F)cc3C2)C2(CCN(C3CCC(O)CC3)CC2)OC1=O (stereo not drawn),inactive
7,COc1cc(C(=O)Nc2cn(Cc3ccc4ccccc4c3)nn2)ccc1-n1cnc(C)c1,inactive
8,COc1cc(OC)c(CCNC(=O)c2cn3cc(-c4cc(OCC(O)CO)ccc4OC)nc3s2)c(OC)c1 (stereo not drawn),inactive
9,CCc1cc(C(=O)NCc2ccc3c(c2)OCO3)c(NC(=O)c2ccc(C(=O)O)cc2)s1,inactive
10,COCc1cc(-c2nc(-c3cccc(CN(C)CC(=O)O)c3)no2)ccc1N1CCCC1C (stereo not drawn),inactive
11,COc1cc(Nc2nccn3nc(Nc4cccc(C(F)(F)F)c4)nc23)cc(OC)c1,inactive
12,COc1ccc(CNc2nc(CCCCC(=O)O)nc3sc4ccccc4c23)cc1Cl,inactive
13,COc1ccc(CNc2nc(CCCCC(=O)O)nc3sc4c(c23)CCCC4)cc1Cl,inactive
14,Cc1cc(OC(C)(C)C)c(S(C)(=O)=O)cc1C(=O)N=C(N)N,inactive
15,Cc1ccccc1-c1ccc(-c2nc(-c3ccc(CN(C)CCC(=O)O)c(F)c3)no2)cc1OCC1CC1,inactive
16,COCc1cc(-c2nc(-c3ccc(C(=O)O)c(F)c3)no2)ccc1-c1cc(F)ccc1OC,inactive
17,Cc1cc2c(NCc3ccc4c(c3)OCO4)nc(-c3ccc(C(=O)O)cc3)nc2s1,inactive
18,O=C(O)[C@H]1CC[C@H](c2nc(NCc3ccc4c(c3)OCO4)c3c(n2)sc2ccccc23)CC1,inactive
19,CCc1cc(C(=O)NCc2ccc(OC)c(Cl)c2)c(NC(=O)c2ccc(C(=O)O)cc2)s1,inactive
20,O=C(O)c1ccc(-c2nc(NCc3ccc4c(c3)OCO4)c3c4c(oc3n2)CCCC4)cc1,inactive
21,COc1ccc(CNc2nc(-c3ccc(S(=O)(=O)O)cc3)nc3sc4c(c23)CCCC4)cc1Cl,inactive
22,CC(C)(Sc1nc(-c2ccccc2)c(-c2ccccc2)s1)C(=O)O,inactive
